Values joined by “and” are separate entries in the source; they are usually repeats but may differ in a detail not shown here. Equal entries are not always repeated.
Assays:
[1] = system: Gram-negative bacteria (except for Pseudomonas aeruginosa); parameters: method as in earlier work; details: cited from earlier work
[2] = Pharmacokinetic study after single oral administration to dogs; type: in vivo
Excerpt: (§1) The validated method was applied to pharmacokinetic studies of DA-7010 in mice, rats, and dogs. The protocols for the animal study were approved by the Department of Laboratory Animals, Institutional Animal Care and Use Committee (IACUC), on the Sungsim Campus of the Catholic University of Korea (approval no. 2014-022) or by IACUC of Biotoxtech (Cheongju, South Korea) (approval no. 140765). Male ICR mice and Sprague-Dawley rats (~8 weeks old) were purchased from Samtaco Bio (Osan, South Korea). Male beagle dogs (~10 months old), which are products from Beijing Marshall Biotechnology (Beijing, China), were used for this study. The accommodation and handling procedures for the animals were similar to those previously reported. Prior to dosing, the animals were fasted for 15 h and allowed to drink water freely. DA-7010 hydrochloride was administered in the pharmacokinetic study, and the dose of DA-7010 described below is based on the free base form of DA-7010.
For the oral administration of DA-7010 in dogs, 3 mg/kg DA-7010 was loaded in a gelatin capsule (size 12, Torpac Inc., Fairfield, NJ, USA) without other excipients. Approximately 2 mL of blood was collected via the cephalic vein using a heparinized (100 IU/mL) 23 G syringe at pre-dose and 15, 30, 45, 60, 120, 240, 360, 480, 720, and 1440 min after the administration of the drug. The collection and storage of each plasma sample (25 μL) and extra plasma sample were performed using the same procedure described above.
(§2) The pharmacokinetic parameters were calculated using noncompartmental analyses (WinNonlin; Pharsight Corporation, Mountain View, CA, USA). The AUC0-∞ was calculated using the trapezoidal rule-extrapolation method. The Cmax and Tmax were read directly from the experimental data.

[3] = Pharmacokinetic study after single oral administration to mice; type: in vivo; details: male, ICR, mouse, plasma
Excerpt: as §1
DA-7010 (dissolved in distilled water) at a dose of 3 mg (in 10 mL) per kilogram was administered orally to the mouse groups A and B (n = 6 each) using gastric gavage. Blood samples (~ 50 μL) were collected into separate heparinized capillary tubes from the retro-orbital plexuses of mice that were under light anesthesia, which was achieved by isoflurane inhalation at 5, 30, 120, and 480 min for group A and 15, 60, 240, and 600 min for group B following the oral administration of DA-7010. The collected sample was immediately centrifuged, and a 25 μL plasma sample was stored at −20 °C until it was used for the LC-MS/MS analyses of DA-7010.
as §2

[4] = Pharmacokinetic study after single oral administration to rats; type: in vivo; details: male, Sprague-Dawley, plasma, rat
Excerpt: as §1
For the rat, the carotid artery was cannulated for serial blood sampling. DA-7010 (dissolved in distilled water) at a dose of 3 mg (in 2 mL) per kilogram was administered orally to the rats (n = 7) using gastric gavage. Blood samples (~50 μL) were collected at 0, 5, 10, 20, 30, 60, 120, 240, 360, 480, and 720 min via the carotid artery following the oral administration of the drug. The cannula was flushed immediately after each blood sampling to prevent blood clotting using a 0.3 mL heparinized 0.9% NaCl-injectable solution (20 units/mL). The same procedure described above was used for the collection and storage of the plasma samples.
as §2

[5] = system: carbapenem-resistant Acinetobacter baumannii; parameters: method as in earlier work; details: mice systemically infected with carbapenem-resistant Acinetobacter baumannii; cited from earlier work
[6] = Stability of DA-7010 in rat plasma under various storage conditions; type: in vitro ADME; details: n = 3, mean ± SD
Procedure: (§3) The stability of DA-7010 in the plasma from the mice, rats, and dogs was evaluated by analyzing 3 replicates of low, medium, and high QC samples under various storage conditions: the bench-top short-term stability (at room temperature for 8 h), post-preparative stability (prepared samples kept in LC vials at 4 °C for 24 h), freeze–thaw stability (3 freeze/thaw (−20 °C/room temperature) cycles), and long-term freezing stability (−20 °C for 1 month). The analyte was determined to be stable when the estimated recovery (determined concentration/nominal concentration × 100%) was in the range of 85–115% and the RSD was < 15%.

[7] = Stability of DA-7010 in plasma, summary over all species; type: in vitro ADME, mice, rats, and dogs
Procedure: as §3

[8] = Stability of DA-7010 in mouse plasma under various storage conditions; type: in vitro ADME; details: n = 3, mean ± SD
Procedure: as §3

[9] = Stability of DA-7010 in dog plasma under various storage conditions; type: in vitro ADME; details: n = 3, mean ± SD
Procedure: as §3

[10] = male, beagle, dog, plasma, dogs (n = 4), single oral dose 3 mg/kg in gelatin capsule, mean ± SD
[11] = mice, single oral dose 3 mg/kg, from mean concentration–time profile
[12] = representative sample 4 h after oral 3 mg/kg, read-out: Plasma concentration of DA-7010
[13] = rats (n = 7), single oral dose 3 mg/kg, mean ± SD
[14] = 3 freeze/thaw (–20 °C/room temperature) cycles, nominal 30 ng/mL
[15] = 3 freeze/thaw (–20 °C/room temperature) cycles, nominal 400 ng/mL
[16] = 3 freeze/thaw (–20 °C/room temperature) cycles, nominal 8000 ng/mL
[17] = long term (‒20 °C over 1 month), nominal 30 ng/mL
[18] = long term (‒20 °C over 1 month), nominal 400 ng/mL
[19] = long term (‒20 °C over 1 month), nominal 8000 ng/mL
[20] = prepared plasma samples in LC vials, post-preparative (prepared samples 4 °C 24 h), nominal 30 ng/mL
[21] = prepared plasma samples in LC vials, post-preparative (prepared samples 4 °C 24 h), nominal 400 ng/mL
[22] = prepared plasma samples in LC vials, post-preparative (prepared samples 4 °C 24 h), nominal 8000 ng/mL
[23] = short term (room temperature 8 h), nominal 30 ng/mL
[24] = short term (room temperature 8 h), nominal 400 ng/mL
[25] = short term (room temperature 8 h), nominal 8000 ng/mL

Q: What does the source list for `C[C@@H]1COB2O[C@H](CN)c3cccc(c32)O1` [DA-7010, ((2S,7R)-7-methyl-7,8-dihydro-2H-1,6,9-trioxa-9a-borabenzo[cd]azulen-2-yl)methanamine]?
A: minimum inhibitory concentration (MIC) [1]: 0.25 to 2 µg/mL; AUC(0-inf) [2, 10]: 21800 ng·h/mL; Cmax [2, 10]: 1820 ± 90.1 ng/mL; half-life ([2]; male, beagle, dog, plasma, dogs (n = 4), single oral dose 3 mg/kg in gelatin capsule, mean ± SD, read-out: Terminal half-life): 7.53 ± 0.563 h; Tmax ([2]; male, beagle, dog, plasma, dogs (n = 4), single oral dose 3 mg/kg in gelatin capsule, median (range)): 1 h; concentration at 4 h ([2]; male, beagle, plasma, dog, representative sample 4 h after oral 3 mg/kg, read-out: Plasma concentration of DA-7010): 1950 ng/mL; Systemic exposure in dogs relative to mice or rats ([2]; single oral dose 3 mg/kg): approximately four times higher; Cmax [3, 11]: 1280 ng/mL; Tmax [3, 11]: 0.25 h; AUC(0-inf) ([3]; mice, single oral dose 3 mg/kg, from mean concentration–time profile (n = 6 per point)): 3920 ng·h/mL; half-life ([3]; mice, single oral dose 3 mg/kg, from mean concentration–time profile, read-out: Terminal half-life): 2.08 h; concentration at 4 h [3, 12]: 334 ng/mL; concentration at 4 h [4, 12]: 648 ng/mL; AUC(0-inf) [4, 13]: 5320 ng·h/mL; Cmax [4, 13]: 1330 ± 427 ng/mL; half-life ([4]; rats (n = 7), single oral dose 3 mg/kg, mean ± SD, read-out: Terminal half-life): 2.88 ± 0.81 h; Tmax ([4]; rats (n = 7), single oral dose 3 mg/kg, median (range)): 0.333 h; ED50 (effective oral dose that protected 50% of mice) [5]: 3 mg/kg and 1.9 to 3 mg/kg; recovery at 30 ng/mL [6, 14]: 107 ± 5.92%; recovery at 400 ng/mL [6, 15]: 94.8 ± 6.2%; recovery at 8000 ng/mL [6, 16]: 100 ± 0.407%; recovery at 1 month, 30 ng/mL [6, 17]: 85.5 ± 0.618%; recovery at 1 month, 400 ng/mL [6, 18]: 95.2 ± 3.3%; recovery at 1 month, 8000 ng/mL [6, 19]: 107 ± 2.67%; recovery at 24 h, 30 ng/mL [6, 20]: 95.5 ± 3.65%; recovery at 24 h, 400 ng/mL [6, 21]: 101 ± 1.33%; recovery at 24 h, 8000 ng/mL [6, 22]: 111 ± 4.06%; recovery at 8 h, 30 ng/mL [6, 23]: 110 ± 4.64%; recovery at 8 h, 400 ng/mL [6, 24]: 97.9 ± 0.394%; recovery at 8 h, 8000 ng/mL [6, 25]: 104 ± 0.647%; Stability, mean recoveries ([7]; 8 h at room temperature, 24 h in LC vial at 4 °C after preparation, 1 month at –20 °C): > 85.5%; Stability, mean recoveries ([7]; after three freeze/thaw (–20 °C/room temperature) cycles): > 87.7%; recovery at 30 ng/mL [8, 14]: 109 ± 6.63%; recovery at 400 ng/mL [8, 15]: 91.2 ± 2.22%; recovery at 8000 ng/mL [8, 16]: 87.7 ± 2.58%; recovery at 1 month, 30 ng/mL [8, 17]: 106 ± 1.54%; recovery at 1 month, 400 ng/mL [8, 18]: 95.5 ± 3.04%; recovery at 1 month, 8000 ng/mL [8, 19]: 88.5 ± 1.77%; recovery at 24 h, 30 ng/mL [8, 20]: 106 ± 5.14%; recovery at 24 h, 400 ng/mL [8, 21]: 92.7 ± 2.58%; recovery at 24 h, 8000 ng/mL [8, 22]: 89.9 ± 7.84%; recovery at 8 h, 30 ng/mL [8, 23]: 109 ± 4.97%; recovery at 8 h, 400 ng/mL [8, 24]: 97.5 ± 6.48%; recovery at 8 h, 8000 ng/mL [8, 25]: 89 ± 2.24%; recovery at 30 ng/mL [9, 14]: 110 ± 3.32%; recovery at 400 ng/mL [9, 15]: 107 ± 2.01%; recovery at 8000 ng/mL [9, 16]: 114 ± 0.0718%; recovery at 1 month, 30 ng/mL [9, 17]: 113 ± 0.5%; recovery at 1 month, 400 ng/mL [9, 18]: 97.3 ± 1.22%; recovery at 1 month, 8000 ng/mL [9, 19]: 111 ± 3.13%; recovery at 24 h, 30 ng/mL [9, 20]: 110 ± 5.48%; recovery at 24 h, 400 ng/mL [9, 21]: 108 ± 1.72%; recovery at 24 h, 8000 ng/mL [9, 22]: 116 ± 2.34%; recovery at 8 h, 30 ng/mL [9, 23]: 107 ± 3.08%; recovery at 8 h, 400 ng/mL [9, 24]: 92.9 ± 1.62%; recovery at 8 h, 8000 ng/mL [9, 25]: 108 ± 1.22%

— article PMC7922803, “Development and Validation of an LC-MS/MS Method for Quantification of the Novel Antibacterial Candidate DA-7010 in Plasma and Application to a Preclinical Pharmacokinetic Study” (Pharmaceuticals, 2021)
